Reference: US20230278972A1, “SUBSTITUTED HALOALKYL SULFONANILIDE HERBICIDES” (FMC Corporation, priority 2020, published 2023)

Columns and labels:
Type in all cases: in vivo
[1] = tested on: soybean (Glycine max); assay: Test A1 preemergence, soybean
Method in brief: (§1)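 Test compounds were formulated in a non-phytotoxic solvent mixture containing a surfactant. For preemergence, seeds sown in a loam soil–sand blend received a directed soil spray. For postemergence, potted plants in the same soil, 2 to 10 cm tall at the one- to two-leaf stage, were sprayed.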

[2] = tested on: corn (Zea mays); assay: Test A1 postemergence, corn; conditions: for Plant response rating, Corn: Postemergence; for Corn plant response rating: postemergence
Method in brief: as §1

[3] = tested on: wheat (Triticum aestivum); assay: Test A1 postemergence, wheat; conditions: for Wheat plant response rating: 31 g ai/ha, postemergence; for Plant response rating, Wheat: Postemergence
Method in brief: (§2)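 Herbicidal response was scored on plants treated either preemergence, by directed spray onto soil of a loam–sand blend after sowing, or postemergence on potted plants at the one- to two-leaf stage, 2–10 cm high. Test chemicals were carried in a non-phytotoxic solvent mix with surfactant.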

[4] = tested on: goosegrass (Eleusine indica); assay: Test A1 postemergence, goosegrass; conditions: for Goosegrass plant response rating: 31 g ai/ha, postemergence; for Plant response rating, Goosegrass: Postemergence
Method in brief: as §2

[5] = tested on: horseweed (Erigeron canadensis); assay: Test A1 postemergence, horseweed; conditions: for Horseweed plant response rating: 31 g ai/ha, postemergence; for Plant response rating, Horseweed: Postemergence, 125 g ai/ha
Method in brief: as §2

[6] = 31 g ai/ha, 0 to 100 scale (0 no effect, 100 complete control)
[7] = 125 g ai/ha, 0 to 100 scale, 0 no effect, 100 complete control
[8] = 31 g ai/ha, 0 to 100 scale (0 no effect, 100 complete control), 10 days
[9] = 0 to 100 scale (0 no effect, 100 complete control)
[10] = 125 g ai/ha, 0 to 100 scale (0 no effect, 100 complete control), 10 days
[11] = 0 to 100 scale (0 no effect, 100 complete control), 10 days

Row | Compound | Plant response rating, Soybean [1, 6] | Plant response rating, Soybean [1, 7] | Plant response rating, Corn [2, 8] | Plant response rating, Corn ([2]; 125 g ai/ha, 0 to 100 scale) | Wheat plant response rating [3, 9] | Plant response rating, Wheat ([3]; 125 g ai/ha, 0 to 100 scale) | Goosegrass plant response rating [4, 9] | Plant response rating, Goosegrass ([4]; 125 g ai/ha, 0 to 100 scale) | Horseweed plant response rating [5, 9] | Plant response rating, Horseweed ([5]; 0 to 100 scale) | Corn plant response rating [2, 6] | Plant response rating, Corn [2, 10] | Plant response rating, Horseweed [5, 11] | Plant response rating, Wheat [3, 10] | Plant response rating, Goosegrass [4, 10] | Plant response rating, Soybean ([1]; 500 g ai/ha, 0 to 100 scale (0 no effect, 100 complete control)) | Plant response rating, Corn ([2]; 500 g ai/ha, 0 to 100 scale) | Plant response rating, Wheat ([3]; 500 g ai/ha, 0 to 100 scale) | Plant response rating, Goosegrass ([4]; 500 g ai/ha, 0 to 100 scale) | Plant response rating, Soybean ([1]; 125 g ai/ha, 0 to 100 scale (0 no effect, 100 complete control))
1 | CCOC(=O)N(c1cc(C(=O)N2C[C@@H](C)O[C@H](C)C2)c(C)c(C)c1C)S(=O)(=O)C(F)(F)F (relative stereo) [Compound 374] | 0 | 70 | 60 | 70 | 20 | 50 | 0 | 90 | – | – | – | – | – | – | – | – | – | – | – | –
2 | Cc1ccc(C2=NOC3CCCC23)cc1NS(=O)(=O)C(F)(F)F (stereo not shown) [Compound 377] | 0 | 0 | 0 | 0 | 0 | 20 | 0 | 0 | 30 | 80 | – | – | – | – | – | – | – | – | – | –
3 | CCc1cc(C)c(N(COC(=O)C(C)(C)C)S(=O)(=O)C(F)(F)F)cc1C1=NOC2CCCC12 (stereo not shown) [Compound 378] | 0 | 0 | 0 | 30 | 30 | 60 | 0 | 30 | 0 | 90 | – | – | – | – | – | – | – | – | – | –
4 | Cc1c(NS(=O)(=O)C(F)(F)F)cc(C2=NOC3(CCCC3)C2)c(C)c1C [Compound 380] | 20 | 50 | – | – | 0 | – | 0 | – | 30 | – | 0 | 50 | 80 | 80 | 30 | – | – | – | – | –
5 | Cc1cc(C)c(C2=NOC(C(C)C)C2)cc1NS(=O)(=O)C(F)(F)F (stereo not shown) [Compound 381] | 0 | 50 | – | – | 20 | – | 0 | – | 0 | – | 0 | 20 | 30 | 70 | 50 | – | – | – | – | –
6 | Cc1c(C2=NOC3(CCCC3)C2)cc(N(COC(=O)C(C)(C)C)S(=O)(=O)C(F)(F)F)c(C)c1C [Compound 382] | 0 | 0 | – | – | 0 | – | 0 | – | 0 | – | 0 | 0 | 50 | 60 | 0 | – | – | – | – | –
7 | Cc1cc(Cl)c(NS(=O)(=O)C(F)(F)F)cc1N1CCC2(CCCCC2)C1=O [Compound 393] | 60 | 80 | – | – | 30 | – | 0 | – | 0 | – | 0 | 30 | 30 | 60 | 70 | – | – | – | – | –
8 | Cc1cc(C)c(N(COC(=O)C(C)(C)C)S(=O)(=O)C(F)(F)F)cc1N1CCC2(CCC(F)(F)CC2)C1=O [Compound 397] | – | 40 | – | – | – | – | – | – | – | – | – | 10 | – | 60 | 90 | 80 | 10 | 70 | 90 | –
9 | COC1CCC2(CC1)CCN(c1cc(NS(=O)(=O)C(F)(F)F)c(C)cc1C)C2=O (stereo not shown) [Compound 398] | 70 | 90 | – | – | 60 | – | 50 | – | 20 | – | 30 | 60 | 50 | 70 | 90 | – | – | – | – | –
10 | Cc1cc(C)c(N(S(=O)(=O)C(F)(F)F)S(=O)(=O)C(F)(F)F)cc1N1CCC2(CCC(C(F)(F)F)CC2)C1=O (stereo not shown) [Compound 399] | 30 | 40 | – | – | 60 | – | 40 | – | 0 | – | 0 | 10 | 50 | 60 | 90 | – | – | – | – | –
11 | Cc1cc(C)c(N2CCC3(CCC(C(F)(F)F)CC3)C2=O)cc1NS(=O)(=O)C(F)(F)F (stereo not shown) [Compound 400] | 50 | 50 | – | – | 30 | – | 10 | – | 30 | – | 0 | 0 | 80 | 30 | 80 | – | – | – | – | –
12 | Cc1cc(C)c(N(COC(=O)C(C)(C)C)S(=O)(=O)C(F)(F)F)cc1N1CCC2(CCC(C)CC2)C1=O (stereo not shown) [Compound 401] | 0 | 0 | – | – | 0 | – | 0 | – | 0 | – | 10 | 60 | 0 | 10 | 90 | – | – | – | – | –
13 | Cc1cc(C)c(N2CCC3(CCC(C)CC3)C2=O)cc1NS(=O)(=O)C(F)(F)F (stereo not shown) [Compound 402] | 10 | 80 | – | – | 0 | – | 20 | – | 20 | – | 0 | 0 | 50 | 0 | 70 | – | – | – | – | –
14 | Cc1cc(C)c(N(COC(=O)C(C)(C)C)S(=O)(=O)C(F)(F)F)cc1N1CCC2(CCC(C(F)(F)F)CC2)C1=O (stereo not shown) [Compound 403] | 0 | 0 | – | – | 0 | – | 0 | – | 0 | – | 0 | 0 | 30 | 0 | 50 | – | – | – | – | –
15 | CCOc1cccc2c1C(=O)N(c1cc(N(COC(=O)C(C)(C)C)S(=O)(=O)Cl)c(C)cc1C)C2 [Compound 414] | – | – | – | – | 0 | – | 0 | – | 0 | – | 0 | 0 | 70 | 0 | 0 | – | – | – | – | 0
